From patent publication US6375943B1, “Attractant for the mediterranean fruit fly, the method of preparation and method of use” (The United States of America as represented by the …, priority 2000, dated 2002)

Legend:
Mediterranean fruit fly = conditions: field studies from the literature; cited from earlier work
[1] = system: wild Mediterranean fruit flies; assay: Wild fly response to ceralure B1 enantiomers, first experiment, Kauai coffee; conditions: for Response of wild flies, Mean ± s.e.: 10 mg, traps serviced every two days; for Male capture compared with other treatments: 10 mg dosage
[2] = system: Mediterranean fruit fly, Ceratitis capitata (Wiedemann); assay: Dose-response field test, Jackson traps, released sterile flies; type: in vivo; conditions: for Mean male fly capture ± s.e.: 48 hours, released sterile flies; for Male capture compared with other treatments: 1 mg, 0.1 mg and 0.01 mg dosages
Description: Field attraction of Mediterranean fruit fly, Ceratitis capitata (Wiedemann), to stereoselectively synthesized enantiomers of the ceralure B1 isomer: The attractancy of the two newly synthesized ceralure B1 enantiomers was evaluated against laboratory and wild populations of medfly and the response to these compounds was compared to commercially available trimedlure and ceralure. Field tests using released sterile flies on the island of Hawaii or field tests against wild populations of medfly in commercial coffee plantations on the island of Kauai were carried out to compare the attractancy, dose response and initial persistence of the new molecules and a racemic (50:50) mixture of the two.
(§1) Insects: Sterilized Mediterranean fruit fly pupae were obtained from the USDA-ARS-USPBARC rearing facility in Honolulu, Hi. The flies were reared on an artificial diet (Tanaka, N., et al., J. Econ. Entomol., 62: 967-968 (1969)) under standard mass-rearing conditions and sterilized as pupae at a dose of 150 GY and two days before emergence. Flies were shipped by air to Hilo where 150 ml of pupae (both sexes) was placed in 15-gallon Rubbermaid action packers modified by screened panels on the bottoms and sides of the units. The emerged flies were given water, sugar and hydrolyzed yeast protein. Flies were 2-9 days old when tested. Wild populations of medflies were present in coffee orchards on the island of Kauai.
(§2) Bioassays: All tests were conducted using tent-shaped Jackson traps with open ends, a removable sticky insert and a ½ inch cotton wick containing the test chemical (Harris, E. J., et al., J. Econ. Entomol., 64: 62-65 (1971)). All tests were conducted using a randomized complete block design having five traps of each treatment in the block. The tests were replicated at least 5 times.
Dose-response tests: 10 mg, 1 mg, 0.1 mg and 0.01 mg doses of each compound (in 100 μl acetone) were tested on ½ inch cotton wicks in Jackson traps. Acetone was used in the control. The treatments were ceralure B1 (1S,2S,5S), ceralure B1 (Racemic), ceralure B1 (1R,2R,5R), trimedlure, ceralure and a blank control. Traps were placed in a macadamia nut orchard on the island of Hawaii near the town of Hilo. Traps were separated by every other tree in every row (approximately 15 meters between traps). Flies (approximately 6,000) were then released by slowly walking between rows while allowing the flies to escape from the opened action packer. Traps were left out for 48 hours after which the traps were collected and brought back to the lab for analysis. Both males and females were counted on the sticky inserts.
(§3) Data analysis: Both male and female medfly were counted on the sticky inserts. […] Data was subjected to analysis of variance (Proc GLM) and the Turkey's test for separation of means values. Significant differences in response were determined at the P=0.05 level. Data were not transformed prior to analysis. Statistical analysis was performed on SAS ver 6.12 (SAS Institute, Cary, N.C.) using a PC. Values presented on the tables are mean values SEM.

[3] = system: Mediterranean fruit fly, Ceratitis capitata (Wiedemann); assay: Longevity field test over three weeks, Jackson traps, released sterile flies; type: in vivo; conditions: for Male capture compared with other treatments: 10 mg dose
Description: as §1, §2
Longevity tests: Preliminary tests to determine the effectiveness of the different chemical compounds over time were also carried out using sterile flies released in a macadamia nut orchard. In these tests all compounds were applied to the cotton wick at a 10 mg dose. 100 μl of each compound was placed on a ½ inch wick inside a Jackson trap. Traps were serviced weekly for three weeks. Inserts were changed each week and new flies were released but the same compounds were left in the field to age.
as §3

[4] = known in the literature; cited from earlier work
[5] = system: wild Mediterranean fruit flies; assay: Wild fly response, second experiment against standard 2 g trimedlure plug; conditions: for Male capture compared with other treatments: after 48 hours, 10 mg versus 2 g trimedlure plug
[6] = dose .01 mg on cotton wick, N = 25
[7] = Week 1, 10 mg dose, released sterile flies
[8] = Week 2, 10 mg dose, same lure aged in field
[9] = Week 3, 10 mg dose, same lure aged in field

Molecule	Relative attractiveness toward the Mediterranean fruit fly (Mediterranean fruit fly)	Response of wild flies, Mean ± s.e. [1]	Mean male fly capture ± s.e. ([2]; dose 1 mg on cotton wick)	Mean male fly capture ± s.e. ([2]; dose 10 mg on cotton wick)	Mean male fly capture ± s.e. [2, 6]	Mean male fly capture ± s.e. ([2]; dose .1 mg on cotton wick)	Male fly capture, mean ± SEM [3, 7]	Male fly capture, mean ± SEM [3, 8]	Male fly capture, mean ± SEM [3, 9]	Male capture compared with other treatments [1]	Male capture compared with other treatments ([2]; 10 mg)	Male capture compared with other treatments ([3]; after one week)	other results
C[C@H]1C[C@H](Cl)CC[C@@H]1C(=O)OC(C)(C)C (relative stereo) [(1S, 2S, 4R), 1,1-dimethylethyl-cis-4-chloro-trans-2-methylcyclohexane-1-carboxylate]	most attractive	–	–	–	–	–	–	–	–	–	–	–	–
CCOC(=O)[C@H]1C[C@@H](I)CC[C@@H]1C [B1 1S,2S,5S, Ethyl(1S, 2S, 5S)-5-iodo-2-methylcyclohexane-1-carboxylate]	–	40.5 ± 8.3 c	173 ± 42.2 b	151.80 ± 25.3 c	38.3 ± 6.5 b	57.20 ± 8.3 c	135.7 ± 33.4 b	5.5 ± 4.5 b	0 ± 0 a	–	–	–	–
ethyl 4 (and 5)-iodo-2-methylcyclohexane-1-carboxylate [Com. Ceralure, reference compound]	more persistent and potent attractant than TML	31.8 ± 4.4 c	65.07 ± 9.5 bc	170.47 ± 33.1 c	23.4 ± 6.3 bc	11.27 ± 4.1 c	135 ± 16.8 b	3.1 ± 2.2 b	.47 ± .27 a	–	–	–	Volatility compared with trimedlure [4]: less volatile than trimedlure
CC1CC(Cl)CCC1C(=O)OC(C)(C)C (stereo not drawn) [TML-C, 1,1-dimethylethyl-cis-4-chloro-trans-2-methylcyclohexane-1-carboxylate]	most active	–	–	–	–	–	–	–	–	–	–	–	–
CCOC(=O)[C@@H]1C[C@H](I)CC[C@H]1C [B1 1R,2R,5R, Ethyl (1R,2R,5R)-5-iodo-2-methylcyclohexane-1-carboxylate]	–	104.2 ± 13.7 a	473.07 ± 56.6 a	487.27 ± 33 a	117 ± 14.1 a	303.07 ± 34.5 a	338.9 ± 40.1 a	69.3 ± 24.9 ab	.3 ± .3 a	captured significantly more males than the B1 racemic mixture	captured significantly more male medflies than B1 (1S,2S,5S), commercial trimedlure, commercial ceralure and (acetone) control	captured significantly more males than B1 (1S,2S,5S), commercial trimedlure, commercial ceralure and control	Male capture compared with other treatments [5]: captured the most male medflies but not significantly more than the B1 racemic mixture and commercial trimedlure; Male capture compared with other treatments ([5]; listed as B1 (1R,2R,5R) enantiomer): caught more wild flies after two days than the TML plug; Flies captured as share of the TML plug baited trap ([5]; after an additional 5 days, 10 mg versus 2 g TML plug): approximately 33%; Dose compared to trimedlure to achieve the same trap capture ([2]; 0.01 mg versus trimedlure 10 mg, mean values from Table 1): 1000 times less; Male capture compared with B1 racemic mixture ([2]; 10 mg, 1 mg and 0.1 mg doses): captured significantly more males than the B1 racemic mixture; Mean male fly capture ± s.e. ([2]; dose .01 mg on cotton wick, N = 25, listed as 1R,2R,5R enantiomer): 117; Activity relative to trimedlure at similar doses ([2]; male capture compared to trimedlure, similar doses): 7-10 times
CCOC(=O)[C@H]1C[C@@H](I)CC[C@@H]1C (racemic) [B1 Racemic, Ethyl(1SR,2SR,5SR)-5-iodo-2-methylcyclohexane-1-carboxylate]	most active	70.8 ± 10 b	376.8 ± 36.7 a	365.53 ± 33.7 b	111 ± 12.2 a	179.67 ± 33.5 b	274.5 ± 21.8 a	79.6 ± 33.3 a	4.7 ± 3.7 a	significantly higher captures than the B1 (1S,2S,5S) and commercial ceralure	captured significantly more male medflies than B1 (1S,2S,5S), commercial trimedlure, commercial ceralure and (acetone) control	captured significantly more males than B1 (1S,2S,5S), commercial trimedlure, commercial ceralure and control	Mean male fly capture ± s.e. ([2]; dose .01 mg on cotton wick, N = 25, listed as B1 racemic): 111; Male capture compared with other treatments ([3]; after two weeks): captured significantly more males than any other compound
